Results on 20 compounds are retold here after US20250197372A1 (priority 2020, published 2025).

In assay [1] the target is T1, recombinant alpha-glucosidase II (murine full-length glucosidase II, alpha and beta subunits, Glu 2) (Mus musculus, UniProt Q8BHN3).
T1 construct: made in house; host or cells: HEK-293T cells transduced with BacMam viruses (75% alpha, 25% beta); protein harvested from culture supernatant
Briefly: Alpha-glucosidase II assay (4-methylumbelliferyl-alpha-D-pyranoside substrate, fluorescence). To be noted: Glucosidase 2; read-out: Glu2 IC50. The format is biochemical.

The target in assay [2] is T2, recombinant alpha-glucosidase I (human full-length glucosidase I, Glu 1) (Homo sapiens, UniProt Q13724).
T2 construct: 6-His (C); made in house; host or cells: HEK-293T cells transduced with BacMam virus (virus raised in Sf9)
T2 sequence (Q13724 1-837): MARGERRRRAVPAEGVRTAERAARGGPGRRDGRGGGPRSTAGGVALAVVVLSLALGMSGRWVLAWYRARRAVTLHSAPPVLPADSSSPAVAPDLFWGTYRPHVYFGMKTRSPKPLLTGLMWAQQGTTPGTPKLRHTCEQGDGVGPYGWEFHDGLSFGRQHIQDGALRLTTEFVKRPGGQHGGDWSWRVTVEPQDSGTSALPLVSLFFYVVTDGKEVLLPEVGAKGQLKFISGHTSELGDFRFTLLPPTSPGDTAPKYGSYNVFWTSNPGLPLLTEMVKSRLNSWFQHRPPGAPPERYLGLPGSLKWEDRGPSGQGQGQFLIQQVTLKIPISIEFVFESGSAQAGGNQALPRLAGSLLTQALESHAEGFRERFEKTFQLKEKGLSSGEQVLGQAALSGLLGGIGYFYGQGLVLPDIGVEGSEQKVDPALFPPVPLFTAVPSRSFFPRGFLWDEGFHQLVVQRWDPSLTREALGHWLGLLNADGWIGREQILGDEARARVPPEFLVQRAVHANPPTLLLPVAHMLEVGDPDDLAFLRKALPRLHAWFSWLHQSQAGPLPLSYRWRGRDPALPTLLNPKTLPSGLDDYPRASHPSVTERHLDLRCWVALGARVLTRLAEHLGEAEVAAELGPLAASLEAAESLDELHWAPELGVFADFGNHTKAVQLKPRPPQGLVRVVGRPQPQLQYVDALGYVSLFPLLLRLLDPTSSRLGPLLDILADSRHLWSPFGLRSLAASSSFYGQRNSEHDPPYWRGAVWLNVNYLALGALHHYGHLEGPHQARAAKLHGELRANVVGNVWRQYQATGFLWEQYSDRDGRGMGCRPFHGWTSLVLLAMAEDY
Kind of assay: Alpha-glucosidase I assay (Amplex Red glucose detection, synthetic trisaccharide substrate). Format: biochemical. To be noted: Glucosidase 1; read-out: Glu 1 IC50. Summed up:
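Compound dilution series incubated 60 min at 37° C with recombinant His-tagged human glucosidase I ([…]), after which trisaccharide substrate analog was added for 90 min at 37° C. Reaction quenched with 1.5M Tris pH 8; D-glucose detected by Amplex Red fluorescence, 560/590 nm. 4-PL curve fit of percent inhibition gave IC50.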

The structures appear in SMILES notation.

T1 sequence (O08795 15-521): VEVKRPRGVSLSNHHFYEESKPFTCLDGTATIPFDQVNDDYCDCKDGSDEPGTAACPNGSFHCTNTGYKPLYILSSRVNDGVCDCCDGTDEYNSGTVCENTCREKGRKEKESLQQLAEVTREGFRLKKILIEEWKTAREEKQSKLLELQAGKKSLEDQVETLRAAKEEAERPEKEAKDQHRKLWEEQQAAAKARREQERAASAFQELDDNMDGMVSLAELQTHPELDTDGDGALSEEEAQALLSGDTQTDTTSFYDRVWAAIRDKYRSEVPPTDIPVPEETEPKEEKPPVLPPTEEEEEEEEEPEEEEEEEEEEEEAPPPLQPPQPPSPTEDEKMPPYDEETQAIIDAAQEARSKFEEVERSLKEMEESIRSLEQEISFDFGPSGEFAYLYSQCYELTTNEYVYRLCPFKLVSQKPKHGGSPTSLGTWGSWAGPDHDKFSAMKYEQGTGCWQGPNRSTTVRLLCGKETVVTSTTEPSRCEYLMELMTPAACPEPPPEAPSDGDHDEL
T1 sequence (Q8BHN3 33-944): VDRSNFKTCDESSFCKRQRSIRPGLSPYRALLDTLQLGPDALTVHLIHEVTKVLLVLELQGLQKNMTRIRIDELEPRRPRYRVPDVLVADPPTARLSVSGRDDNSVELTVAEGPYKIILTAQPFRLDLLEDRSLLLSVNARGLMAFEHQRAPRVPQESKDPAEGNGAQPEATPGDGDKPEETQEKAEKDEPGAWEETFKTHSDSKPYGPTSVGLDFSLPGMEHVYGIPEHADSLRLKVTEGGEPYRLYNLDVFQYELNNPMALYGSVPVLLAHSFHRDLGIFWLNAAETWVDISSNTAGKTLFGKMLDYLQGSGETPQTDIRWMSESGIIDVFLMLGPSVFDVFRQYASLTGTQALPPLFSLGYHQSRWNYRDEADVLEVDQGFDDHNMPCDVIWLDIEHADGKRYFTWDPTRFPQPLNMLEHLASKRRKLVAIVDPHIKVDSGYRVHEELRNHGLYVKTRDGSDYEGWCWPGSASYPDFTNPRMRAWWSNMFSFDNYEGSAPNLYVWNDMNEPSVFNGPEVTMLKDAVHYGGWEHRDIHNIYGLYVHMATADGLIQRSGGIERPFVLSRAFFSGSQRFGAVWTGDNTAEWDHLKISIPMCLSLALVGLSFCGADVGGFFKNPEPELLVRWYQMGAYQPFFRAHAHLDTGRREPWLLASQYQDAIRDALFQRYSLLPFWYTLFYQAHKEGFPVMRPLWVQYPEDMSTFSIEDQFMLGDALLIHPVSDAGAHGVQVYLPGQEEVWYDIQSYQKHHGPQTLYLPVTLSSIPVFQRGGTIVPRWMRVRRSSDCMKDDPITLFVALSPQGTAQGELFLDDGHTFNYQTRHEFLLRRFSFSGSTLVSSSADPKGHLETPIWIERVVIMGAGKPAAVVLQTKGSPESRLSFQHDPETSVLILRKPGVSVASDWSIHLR

`O=[N+]([O-])c1cc(N2CCOCC2)ccc1NCc1ccc(CN2C[C@@H](O)[C@H](O)[C@@H](O)[C@@H]2CO)cc1` (stereo in doubt) [Compound 1069, (2S,3S,4S,5R)-2-(hydroxymethyl)-1-{[4-({[4-(morpholin-4-yl)-2-nitrophenyl]amino}methyl)phenyl]methyl}piperidine-3,4,5-triol]: the IC50 (usually the concentration that gives 50% inhibition) was 4 nM in assay [1] and 22 nM in assay [2].

For the compound `CN(Cc1ccc(CN2C[C@H](O)[C@@H](O)[C@H](O)[C@H]2CO)cc1)c1cc(-c2cccnn2)cc(C2CC2)c1` [Compound 1001, (2R,3R,4R,5S)-1-{[4-({[3-cyclopropyl-5-(pyridazin-3-yl)phenyl](methyl)amino}methyl)phenyl]methyl}-2-(hydroxymethyl)piperidine-3,4,5-triol], the concentration for half-maximal inhibition (IC50) was determined as 437 nM in assay [1] and 13 nM in assay [2].

In the case of `Cc1cc(CN2CCOCC2)cc(NCCCCCCN2C[C@H](O)[C@@H](O)[C@H](O)[C@H]2CO)c1` [Compound 1003, (2R,3R,4R,5S)-2-(hydroxymethyl)-1-[6-({3-methyl-5-[(morpholin-4-yl)methyl]phenyl}amino)hexyl]piperidine-3,4,5-triol], the IC50 in assay [1] amounted to 2 nM; in assay [2], 366 nM.

Turning to `Cc1cc(CN2CCOCC2)cc(NCc2ccc(CN3C[C@H](O)[C@@H](O)[C@H](O)[C@H]3CO)cc2)c1` [Compound 1005, (2R,3R,4R,5S)-2-(hydroxymethyl)-1-({4-[({3-methyl-5-[(morpholin-4-yl)methyl]phenyl}amino)methyl]phenyl}methyl)piperidine-3,4,5-triol], the IC50 in assay [1] amounted to 1580 nM; in assay [2], 404 nM.

For `OC[C@@H]1[C@@H](O)[C@H](O)[C@@H](O)CN1CCCCCCNc1cc(C2CC2)cc(N2CCOCC2)c1` [Compound 1006, (2R,3R,4R,5S)-1-(6-{[3-cyclopropyl-5-(morpholin-4-yl)phenyl]amino}hexyl)-2-(hydroxymethyl)piperidine-3,4,5-triol], the half-inhibitory concentration (IC50) came to 1 nM in assay [1] and 220 nM in assay [2].

Regarding `N#Cc1cc(NCc2cccc(CN3C[C@H](O)[C@@H](O)[C@H](O)[C@H]3CO)c2)cc(-c2ccc[nH]2)c1` [Compound 1045, 3-(1H-pyrrol-2-yl)-5-{[(3-{[(2R,3R,4R,5S)-3,4,5-trihydroxy-2-(hydroxymethyl)piperidin-1-yl]methyl}phenyl)methyl]amino}benzonitrile], the figures for the concentration for half-maximal inhibition (IC50) in assay [1] and in assay [2] were 7700 nM and under 1 nM, respectively.

Turning to `N#Cc1cc(NCc2cccc(CN3C[C@H](O)[C@@H](O)[C@H](O)[C@H]3CO)c2)cc(-c2cccnn2)c1` [Compound 1046, 3-(pyridazin-3-yl)-5-{[(3-{[(2R,3R,4R,5S)-3,4,5-trihydroxy-2-(hydroxymethyl)piperidin-1-yl]methyl}phenyl)methyl]amino}benzonitrile], the figures for the IC50 in assay [1] and in assay [2] were 18000 nM and 17 nM, respectively.

As for `N#Cc1cc(NCc2cccc(CN3C[C@H](O)[C@@H](O)[C@H](O)[C@H]3CO)c2)cc(-c2ncccn2)c1` [Compound 1047, 3-(pyrimidin-2-yl)-5-{[(3-{[(2R,3R,4R,5S)-3,4,5-trihydroxy-2-(hydroxymethyl)piperidin-1-yl]methyl}phenyl)methyl]amino}benzonitrile], the figures for the IC50 in assay [1] and in assay [2] were 12900 nM and 13 nM, respectively.

For the compound `Cc1cc(NCc2ccc(CN3C[C@H](O)[C@@H](O)[C@H](O)[C@H]3CO)cc2)cc(N2CCOCC2)c1` [Compound 1048, (2R,3R,4R,5S)-2-(hydroxymethyl)-1-{[4-({[3-methyl-5-(morpholin-4-yl)phenyl]amino}methyl)phenyl]methyl}piperidine-3,4,5-triol], the half-maximal inhibitory concentration (IC50) in assay [1] is 550 nM; in assay [2] it was 145 nM.

For the compound `Cc1cc(NCc2ccc(CN3C[C@H](O)[C@@H](O)[C@H](O)[C@H]3CO)cc2)cc(C2=COCCO2)c1` [Compound 1050, (2R,3R,4R,5S)-1-{[4-({[3-(5,6-dihydro-1,4-dioxin-2-yl)-5-methylphenyl]amino}methyl)phenyl]methyl}-2-(hydroxymethyl)piperidine-3,4,5-triol], the results for the IC50 in assay [1] and in assay [2] were 3 nM and 32 nM, respectively.

Consider `Cc1cc(NCc2ccc(CN3C[C@H](O)[C@@H](O)[C@H](O)[C@H]3CO)cc2)cc(-c2ccc[nH]2)c1` [Compound 1051, (2R,3R,4R,5S)-2-(hydroxymethyl)-1-{[4-({[3-methyl-5-(1H-pyrrol-2-yl)phenyl]amino}methyl)phenyl]methyl}piperidine-3,4,5-triol], for which the IC50 is 213 nM in assay [1] and 48 nM in assay [2].

`Cc1cc(NCc2ccc(CN3C[C@H](O)[C@@H](O)[C@H](O)[C@H]3CO)cc2)cc(-c2ncccn2)c1` [Compound 1053, (2R,3R,4R,5S)-2-(hydroxymethyl)-1-{[4-({[3-methyl-5-(pyrimidin-2-yl)phenyl]amino}methyl)phenyl]methyl}piperidine-3,4,5-triol]: the IC50 in assay [1] was 139 nM; in assay [2], 104 nM.

Turning to `CS(=O)(=O)c1cc(NCc2ccc(CN3C[C@H](O)[C@@H](O)[C@H](O)[C@H]3CO)cc2)cc(N2CCOCC2)c1` [Compound 1054, (2R,3R,4R,5S)-2-(hydroxymethyl)-1-{[4-({[3-methanesulfonyl-5-(morpholin-4-yl)phenyl]amino}methyl)phenyl]methyl}piperidine-3,4,5-triol], the half-maximal inhibitory concentration (IC50) was found to be 2200 nM in assay [1] and 102 nM in assay [2].

For the compound `CS(=O)(=O)c1cc(NCc2ccc(CN3C[C@H](O)[C@@H](O)[C@H](O)[C@H]3CO)cc2)cc(-c2ncccn2)c1` [Compound 1059, (2R,3R,4R,5S)-2-(hydroxymethyl)-1-{[4-({[3-methanesulfonyl-5-(pyrimidin-2-yl)phenyl]amino}methyl)phenyl]methyl}piperidine-3,4,5-triol], the 50% inhibitory concentration (IC50) in assay [1] was 58 nM; in assay [2], 33 nM.

For the compound `N#Cc1cc(NCc2ccc(CN3C[C@H](O)[C@@H](O)[C@H](O)[C@H]3CO)cc2)cc(N2CCOCC2)c1` [Compound 1060, 3-(morpholin-4-yl)-5-{[(4-{[(2R,3R,4R,5S)-3,4,5-trihydroxy-2-(hydroxymethyl)piperidin-1-yl]methyl}phenyl)methyl]amino}-benzonitrile], the results for the IC50 in assay [1] and in assay [2] were 262 nM and 41 nM, respectively.

Consider `N#Cc1cc(NCc2ccc(CN3C[C@H](O)[C@@H](O)[C@H](O)[C@H]3CO)cc2)cc(C2=COCCO2)c1` [Compound 1062, 3-(5,6-dihydro-1,4-dioxin-2-yl)-5-{[(4-{[(2R,3R,4R,5S)-3,4,5-trihydroxy-2-(hydroxymethyl)piperidin-1-yl]methyl}phenyl)-methyl]amino}benzonitrile], for which the IC50 in assay [1] is under 1 nM; in assay [2], 1 nM.

In the case of `N#Cc1cc(NCc2ccc(CN3C[C@H](O)[C@@H](O)[C@H](O)[C@H]3CO)cc2)cc(-c2ccc[nH]2)c1` [Compound 1063, 3-(1H-pyrrol-2-yl)-5-{[(4-{[(2R,3R,4R,5S)-3,4,5-trihydroxy-2-(hydroxymethyl)piperidin-1-yl]methyl}phenyl)methyl]amino}-benzonitrile], the IC50 in assay [1] is 70 nM; in assay [2] it was 1 nM.

Regarding `N#Cc1cc(NCc2ccc(CN3C[C@H](O)[C@@H](O)[C@H](O)[C@H]3CO)cc2)cc(-c2cccnn2)c1` [Compound 1064, 3-(pyridazin-3-yl)-5-{[(4-{[(2R,3R,4R,5S)-3,4,5-trihydroxy-2-(hydroxymethyl)piperidin-1-yl]methyl}phenyl)methyl]amino}-benzonitrile], the concentration for half-maximal inhibition (IC50) in assay [1] was determined as 2 nM; in assay [2] it was 12 nM.

On to `N#Cc1cc(NCc2ccc(CN3C[C@H](O)[C@@H](O)[C@H](O)[C@H]3CO)cc2)cc(-c2ncccn2)c1` [Compound 1065, 3-(pyrimidin-2-yl)-5-{[(4-{[(2R,3R,4R,5S)-3,4,5-trihydroxy-2-(hydroxymethyl)piperidin-1-yl]methyl}phenyl)methyl]amino}-benzonitrile], for which the IC50 in assay [1] is 6 nM; in assay [2] it was 9 nM.

As to `OC[C@@H]1[C@@H](O)[C@H](O)[C@@H](O)CN1Cc1cccc(CNc2ccc(C3=COCCO3)cc2)c1` [Compound 1066, (2R,3R,4R,5S)-1-{[3-({[4-(5,6-dihydro-1,4-dioxin-2-yl)phenyl]amino}methyl)phenyl]methyl}-2-(hydroxymethyl)piperidine-3,4,5-triol], the IC50 in assay [1] came out at 3360 nM; in assay [2] it was 69 nM.
